Measurements reported in patent publication US20260116921A1, “PEPTIDE INHIBITORS OF INTERLEUKIN-23 RECEPTOR AND THEIR USE TO TREAT INFLAMMATORY DISEASES” (priority 2018, published 2026).
Bridge positions count the residues as written; N and C are the ends. Square brackets hold non-standard residues; d marks the D form. Peptide text beside a SMILES is read from it. Trp(7-Me) = Cc1cccc2c(C[C@H](N)C(=O)O)c[nH]c12; 2Nal = N[C@@H](Cc1ccc2ccccc2c1)C(=O)O; AEF = NCCOc1ccc(C[C@H](N)C(=O)O)cc1; Cit = NC(=O)NCCC[C@H](N)C(=O)O; Pen = CC(C)(S)[C@H](N)C(=O)O; αMeK = C[C@](N)(CCCCN)C(=O)O; βAla = NCCC(=O)O

Legend:
in vitro [1] = conditions: both, SD, rat
IL-23R = molecular target: T1, IL-23R (Homo sapiens, UniProt Q5VWK5); assay: DB cells IL23R pSTAT3 cell assay (pStat3 HTRF); assay type: cell-based; conditions: Table E3; DB cells, IL-23 0.5 nM, 30 minutes at 37° C.; read-out: pStat3 HTRF (IC50)
T1 sequence (Q5VWK5 24-629): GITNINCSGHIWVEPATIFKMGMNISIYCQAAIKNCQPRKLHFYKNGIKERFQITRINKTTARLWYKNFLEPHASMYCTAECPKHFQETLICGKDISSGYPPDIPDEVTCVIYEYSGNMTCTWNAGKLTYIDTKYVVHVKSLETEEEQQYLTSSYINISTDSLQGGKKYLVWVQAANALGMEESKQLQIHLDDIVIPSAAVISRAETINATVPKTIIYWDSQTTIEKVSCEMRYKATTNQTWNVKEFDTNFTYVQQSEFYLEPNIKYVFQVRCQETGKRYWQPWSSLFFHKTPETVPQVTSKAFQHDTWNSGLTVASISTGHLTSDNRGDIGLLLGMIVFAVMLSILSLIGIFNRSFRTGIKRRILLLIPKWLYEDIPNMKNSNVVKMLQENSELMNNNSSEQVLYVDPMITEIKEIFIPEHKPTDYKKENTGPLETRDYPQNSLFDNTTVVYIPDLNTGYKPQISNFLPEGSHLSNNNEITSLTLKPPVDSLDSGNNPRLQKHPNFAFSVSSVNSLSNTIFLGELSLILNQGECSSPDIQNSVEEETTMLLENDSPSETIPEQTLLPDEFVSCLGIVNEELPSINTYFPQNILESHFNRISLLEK
Procedure, shortened: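 HTRF readout of lysate pSTAT3 (Tyr705) after two-plate processing. Peptide dilution series co-incubated with IL-23 (0.5 nM final) on 5×10E5 IL-23R-expressing DB cells per well, 30 min, 37 °C.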

NK cells = assay: NK cell based assay (IL-23/IL-18-induced IFNγ, Quantikine ELISA); conditions: human primary NK cells, IL-23 at EC50 to EC75 + IL-18 10 ng/mL, IFNγ after 20 to 24 hours
Experimental: killer (NK) cells, purified from human peripheral blood of healthy donors by negative selection (Miltenyi Biotech, Cat #130-092-657), were cultured in complete media (RPMI 1640 containing […], L-glutamine and penicillin-streptomycin) in the presence of IL-2 (RnD, Cat #202-IL-010/CF) at 25 ng/mL. After 7 days, cells were centrifuged, and resuspended in complete media at IE6 cells/mL. […] After 20 to 24 hours, IFNγ in the supernatant was quantified using Quantikine ELISA (RnD, Cat #DIF50).

in vitro [2] = conditions: human, 20% fecal homogenate (supernatant), anaerobic, pH 6.8
Experimental: Fecal homogenate (20%) was prepared by adding 4 mL of growth medium (1 liter contains 2 g peptone water powder, 2 g yeast extract, 0.1 g NaCl, 0.04 g KH2PO4, 0.01 g CaCl2·6H2O, 0.01 g MgSO4·7H2O, 2 mL Tween 80, 0.5 g bile salts, 0.5 g L-cysteine HCl, 2 g NaHCO3, and 10 μL Vitamin K, pH adjusted to 6.8, and sterilized by filtration through a 0.22 μm filter) to every gram of feces (pooled freshly collected human or cynomolgus monkey feces). The suspension was vortexed to break up large clumps, and homogenized using a bead mill homogenizer. Centrifuged the homogenate at 2800×g for 15 min. The supernatant is taken out and used for incubations. DMSO stocks (10 mM) were first prepared for the test compounds. Incubations were performed in an anaerobic chamber conditioned at 37° C. Aliquots of the DMSO solutions were dosed into 1.0 mL aliquots of 20% fecal homogenate, which are pre-warmed to 37° C. The final test compound concentration was 20 μM. At each timepoint (0, 20 min, 1, 3, 6, or 24 hours), 100 μL aliquot of each incubation mixture is taken out and added to separate tubes containing 300 μL of 50% acetonitrile/50% methanol and an internal standard to terminate the reaction. Samples were taken out of the anaerobic chamber and stored at 4° C. until the end of the experiment. After the final timepoint is sampled, the tubes were mixed and then centrifuged at 3,000 rpm for 10 minutes. Aliquots of the supernatant were removed, diluted 1:1 into distilled water containing 0.1% formic acid, and analyzed by LC/MS/MS. Percent remaining at each timepoint was calculated based on the peak area response ratio of test to compound to internal standard. Time 0 was set to 100%, and all later timepoints were calculated relative to time 0. Half-lives were calculated by fitting to a first-order exponential decay equation using Graphpad or Excel.

in vitro [3] = conditions: cynomolgus monkey, 20% fecal homogenate (supernatant), anaerobic, pH 6.8

Structure (SMILES) | half-life at 20 μM (in vitro [1]; plasma (EDTA, pooled)) [h] | IC50 (IL-23R) [nM] | IC50 (NK cells) [nM] | half-life at 20 μM (in vitro [2]) [h] | half-life at 20 μM (in vitro [3]) [h] | half-life at 20 μM (in vitro [1]; plasma (EDTA)) [h]
CC(=O)NCCCC[C@@H]1NC(=O)[C@H](Cc2c[nH]c3c(C)cccc23)NC(=O)[C@H]([C@@H](C)O)NC(=O)[C@H](CC(N)=O)NC(=O)[C@@H](NC(C)=O)C(C)(C)SSC(C)(C)[C@@H](C(=O)N[C@@H](Cc2ccc(OCCN)cc2)C(=O)N[C@@H](Cc2ccc3ccccc3c2)C(=O)N[C@@](C)(CCCCN)C(=O)N[C@@H](CCCCNC(C)=O)C(=O)N[C@@H](CC(N)=O)C(=O)N[C@H](CCCCN)C(N)=O)NC1=O [SEQ ID No. 252, Ac-[Pen]-NT-[W(7-Me)]-[Lys(Ac)]-[Pen]-Phe[4-(2-aminoethoxy)]-[2-Nal]-[a-MeLys]-[Lys(Ac)]-N-[(D)Lys]-NH2] | > 24 | < 1 | < 10 | > 24 | > 24 | 
CC(=O)NCCCC[C@H](NC(=O)[C@](C)(CC(C)C)NC(=O)[C@H](Cc1ccc2ccccc2c1)NC(=O)[C@H](Cc1ccc(OCCN)cc1)NC(=O)[C@H]1NC(=O)[C@H](CCC(N)=O)NC(=O)[C@H](Cc2c[nH]c3c(C)cccc23)NC(=O)[C@H]([C@@H](C)O)NC(=O)[C@H](CC(N)=O)NC(=O)[C@@H](NC(C)=O)C(C)(C)SSC1(C)C)C(=O)NCC(=O)NCCC(N)=O [compound 205] |  | 1 to 10 | 11 to 100 | > 24 | > 24 | 1
CC[C@H](C)[C@H](NC(=O)[C@H](CCCCNC(C)=O)NC(=O)[C@](C)(CC(C)C)NC(=O)[C@H](Cc1ccc2ccccc2c1)NC(=O)[C@H](Cc1ccc(OCCN)cc1)NC(=O)[C@H]1NC(=O)[C@H](CCC(N)=O)NC(=O)[C@H](Cc2c[nH]c3c(C)cccc23)NC(=O)[C@H]([C@@H](C)O)NC(=O)[C@H](CC(N)=O)NC(=O)[C@@H](NC(C)=O)C(C)(C)SSC1(C)C)C(=O)NCCC(N)=O [compound 216] |  | 10 to 100 | 101 to 500 | > 24 | > 24 | 13
CC(=O)NCCCC[C@H](NC(=O)[C@](C)(CC(C)C)NC(=O)[C@H](Cc1ccc2ccccc2c1)NC(=O)[C@H](Cc1ccc(OCCN)cc1)NC(=O)[C@H]1NC(=O)[C@H](CCC(N)=O)NC(=O)[C@H](Cc2c[nH]c3c(C)cccc23)NC(=O)[C@H]([C@@H](C)O)NC(=O)[C@H](CC(N)=O)NC(=O)[C@@H](NC(C)=O)C(C)(C)SSC1(C)C)C(=O)N[C@@H](C)C(=O)NCCC(N)=O [compound 207] |  | 1 to 10 | < 10 | > 24 | > 24 | 2
CC(=O)NCCCC[C@@H]1NC(=O)[C@@H](NC(C)=O)C(C)(C)SSC(C)(C)[C@@H](C(=O)N[C@@H](Cc2ccc(OCCN)cc2)C(=O)N[C@@H](Cc2ccc3ccccc3c2)C(=O)N[C@@](C)(CCCCN)C(=O)N[C@@H](CCCCNC(C)=O)C(=O)N[C@@H](CC(N)=O)C(=O)NCCC(N)=O)NC(=O)[C@H](CCC(N)=O)NC(=O)[C@H](Cc2c[nH]c3c(C)cccc23)NC(=O)[C@H]([C@@H](C)O)NC1=O [compound 239] |  | 1 to 10 | < 10 | > 24 | 7 | > 24
CC(=O)N[C@@H]1C(=O)N[C@@H](CC(N)=O)C(=O)N[C@@H]([C@@H](C)O)C(=O)N[C@@H](Cc2c[nH]c3c(C)cccc23)C(=O)N[C@@H](CCC(N)=O)C(=O)N[C@H](C(=O)N[C@@H](Cc2ccc(OCCN)cc2)C(=O)N[C@@H](Cc2ccc3ccccc3c2)C(=O)N[C@@](C)(CCCCN)C(=O)NC(C)(C)C(=O)N[C@@H](CC(N)=O)C(=O)NCCC(N)=O)C(C)(C)SSC1(C)C [compound 236] |  | 1 to 10 | < 10 | > 24 | > 24 | > 19.8
CC(=O)NCCCC[C@H](NC(=O)[C@](C)(CC(C)C)NC(=O)[C@H](Cc1ccc2ccccc2c1)NC(=O)[C@H](Cc1ccc(OCCN)cc1)NC(=O)[C@H]1NC(=O)[C@](C)(CCCCN)NC(=O)[C@H](Cc2c[nH]c3c(C)cccc23)NC(=O)[C@H]([C@@H](C)O)NC(=O)[C@H](CC(N)=O)NC(=O)[C@@H](NC(C)=O)C(C)(C)SSC1(C)C)C(=O)N[C@@H](CC(N)=O)C(=O)NCCC(N)=O [compound 234] |  | 1 to 10 | < 10 | > 24 | > 24 | 7
CC(=O)NCCCC[C@H](NC(=O)[C@](C)(CCCCN)NC(=O)[C@H](Cc1ccc2ccccc2c1)NC(=O)[C@H](Cc1ccc(OCCN)cc1)NC(=O)[C@H]1NC(=O)[C@H](CCC(N)=O)NC(=O)[C@H](Cc2c[nH]c3c(C)cccc23)NC(=O)[C@H]([C@@H](C)O)NC(=O)[C@H](CCCNC(N)=O)NC(=O)[C@@H](NC(C)=O)C(C)(C)SSC1(C)C)C(=O)N[C@@H](CC(N)=O)C(=O)NCCC(N)=O [compound 238] (Ac-[Pen][Cit]T[Trp(7-Me)]Q[Pen][AEF][2Nal][αMeK]K(Ac)N[βAla]-NH2; disulfide 1-6) |  | 1 to 10 | < 10 | > 24 | 7 | > 24
CC(=O)N[C@@H]1C(=O)N[C@@H](CC(N)=O)C(=O)N[C@@H]([C@@H](C)O)C(=O)N[C@@H](Cc2c[nH]c3c(C)cccc23)C(=O)N[C@@H](CCC(N)=O)C(=O)N[C@H](C(=O)N[C@@H](Cc2ccc(OCCN)cc2)C(=O)N[C@@H](Cc2ccc3ccccc3c2)C(=O)N[C@@](C)(CCCCN)C(=O)N[C@@H](CCC(=O)O)C(=O)N[C@@H](CC(N)=O)C(=O)NCCC(N)=O)C(C)(C)SSC1(C)C [compound 282] |  | 1 to 10 | < 10 | > 24 | 22 | > 24
CC(=O)NCCCC[C@H](NC(=O)[C@](C)(CC(C)C)NC(=O)[C@H](Cc1ccc2ccccc2c1)NC(=O)[C@H](Cc1ccc(OCCN)cc1)NC(=O)[C@H]1NC(=O)[C@H](CCC(N)=O)NC(=O)[C@H](Cc2c[nH]c3c(C)cccc23)NC(=O)[C@H]([C@@H](C)O)NC(=O)[C@H](CC(N)=O)NC(=O)[C@@H](NC(C)=O)C(C)(C)SSC1(C)C)C(=O)NCCC(=O)NCCC(N)=O [compound 226] |  | 10 to 100 | < 10 | > 24 | > 24 | 8
CC(=O)NCCCC[C@H](NC(=O)[C@](C)(CCCCN)NC(=O)[C@H](Cc1ccc2ccccc2c1)NC(=O)[C@H](Cc1ccc(OCCN)cc1)NC(=O)[C@H]1NC(=O)[C@H](CCC(N)=O)NC(=O)[C@H](Cc2cn(C)c3ccccc23)NC(=O)[C@H]([C@@H](C)O)NC(=O)[C@H](CC(N)=O)NC(=O)[C@@H](NC(C)=O)C(C)(C)SSC1(C)C)C(=O)N[C@@H](CC(N)=O)C(=O)NCCC(N)=O [compound 232] |  | 1 to 10 | < 10 | > 24 | 10 | > 24
CC(=O)NCCCC[C@@H]1NC(=O)[C@H](Cc2c[nH]c3c(C)cccc23)NC(=O)[C@H]([C@@H](C)O)NC(=O)[C@H](CC(N)=O)NC(=O)[C@@H](NC(C)=O)C(C)(C)SSC(C)(C)[C@@H](C(=O)N[C@@H](Cc2ccc(OCCN)cc2)C(=O)N[C@@H](Cc2ccc3ccccc3c2)C(=O)N[C@@](C)(CCCCN)C(=O)N[C@@H](CCCCNC(C)=O)C(=O)N[C@@H](Cc2c[nH]cn2)C(=O)NCCC(N)=O)NC1=O [compound 272] |  | 1 to 10 | < 10 | > 24 | > 24 | > 24
